The source of these data is patent publication US20090023666A1, “Modulators of Hypoxia Inducible Factor-1 and Related Uses” (priority 2006, published 2009).

Data set [1] has as its system A549. The experiment in a line: cells. The class given is cell-based. To be noted: Homo sapiens, A549, read-out: APA (A549) IC50. As to the method:
(§1) FIG. 8 is a graph depicting the mRNA levels of α-1 and α-3 isoforms quantitated by real time RT-PCR (TaqMan) using fluorescent labeled TaqMan probes. Anti-proliferation (IC50 values) activity of BNC4 on indicated cell lines was determined by MTS assay. Total alpha levels (al+a3) were plotted against (1/IC50) X100 values.

The test system of data set [2] is Caki-1 (CAKI). Nature of the data set: cells. The class given is cell-based. To be noted: Homo sapiens, CAKI-1, read-out: APA (Caki-1) IC50. As to the method:
as §1

For data set [3], the target named is Na-K-ATPase. The experiment in a line: Na-K-ATPase enzyme assay (inorganic phosphate liberated from ATP), pig brain. The class given is biochemical. The note with it: Pig brain; read-out: ATPase Inh, IC50 Pig brain. As for the experimental part: (§2) Compounds were tested for their activity on Na-K-ATPase enzyme in an in vitro enzyme assay. The ATPase activity was assayed as the amount of inorganic phosphate liberated from ATP by Dog Kidney or Porcine cerebral cortex Na-K-ATPase.

Data set [4] concerns 5-aminoimidazole-4-carbox-amide riboside (AICAR). Nature of the data set: AICAR-RA reporter assay. The class given is cell-based. The note with it: indicative of the inhibition of glucose metabolism, read-out: AICAR-RA ED50. On the technique in general: In a reporter assay the amount or activity of a reporter protein is the signal.
Data set [5] concerns the target T1, Na-K-ATPase (Canis lupus familiaris, UniProt P50997).
T1 construct: liberated from ATP by Dog Kidney or Porcine cerebral cortex Na-K-ATPase; from tissue; host or cells: dog kidney
The experiment in a line: Na-K-ATPase enzyme assay (inorganic phosphate liberated from ATP), dog kidney. The class given is biochemical. As to the method:
as §2

Data set [6] relates to Panc-1 (PANC). The experiment in a line: Anti-proliferative activity (APA), Panc-1. The class given is cell-based. The note with it: Homo sapiens, PANC-1, read-out: APA (Panc-1) IC50. As to the method:
as §1

For data set [7], the system named is A549 sentinel line. Nature of the data set: Hypoxic stress response induced by cytotoxic agents in A549 sentinel line. The class given is cell-based. To be noted: chemotherapeutic agent alone. An excerpt: FIGS. 7A-7E are graphs depicting the stress response of A549 Sentinel Line induced by treatment with Gemcitabine (FIG. 7A) or Gemcitabine in the presence of indicated compound (FIG. 7B-7D). Untreated (control) sample is shown in shadow. […] Similar results can be achieved for other chemotherapeutic agents which induce hypoxic stress, such as paclitaxel, carboplatin, and mitoxantrone.
Similar results were obtained with carboplatin (not shown).

For data set [8], the system named is Panc-1 tumors. The experiment in a line: In vivo activity against Panc-1 human pancreatic xenograft. More on the design: species or system nude mice. To be noted: Gemcitabine 40 mg/kg q3d × 4. As for the experimental part: Panc-1 tumors were injected subcutaneously (sc) into the flanks of male nude mice. After the tumors reached 60 mg in size, osmotic pumps (model 2002, Alzet Inc., flow rate 0.5 μl/hr) containing 15 mg/ml of BP244 were implanted sc on the opposite sides of the mice. The control animals received pumps containing vehicle (10% captisol, Cyclex Inc.). The mice treated with standard chemotherapy agent received intra-peritoneal injections of Gemcitabine at 40 mg/kg every 3 days for 4 treatments (q3d×4). The experiment was terminated when the control group tumor size reached an average of about 1 gram. Upon termination, the mice were weighed, sacrificed and their tumors excised. The tumors were weighed and the mean tumor weight per group was calculated.
A titration experiment was first performed on BP244 to determine its minimum effective dose against Panc-1 human pancreatic xenograft in nude mice. BP244 (sc, osmotic pumps) was first tested at 15, 10 and 5 mg/ml using Alzet pumps as in previous experiments. Gemcitabine (40 mg/kg; q3d×4, i.p.) was also included in the experiment as a comparison. […]
(In general: Xenograft models place foreign cells or tissue in a host animal.)

For data set [9] the following is noted: in vivo; cited from earlier work.

The term IC50 denotes the concentration that inhibits the measured activity by half. In the case of `CN(C)/N=C1/C=C2CCC3C(CC[C@]4(C)[C@@H](c5ccc(=O)oc5)CC[C@]34O)[C@@]2(C)CC1` (some centres unmarked), the IC50 amounted to 23 nM in [1], 118 nM in data set [2] and 196 nM in data set [3]. Further, the EC50 in data set [4] was determined as 102 nM.
Turning to `C[C@]12CCC(NCCN3CCOCC3)CC1CCC1C2CC[C@]2(C)[C@@H](c3ccc(=O)oc3)CC[C@]12O` (some centres unmarked), the 50% inhibitory concentration (IC50) in data set [1] turned out to be 101 nM; in [2] it was 276 nM; in [3], 356 nM.
Turning to `C[C@]12CC[C@H](OC(=O)C3CCNC3)C=C1CCC1C2CC[C@]2(C)[C@@H](c3ccc(=O)oc3)CC[C@]12O` (some centres unmarked), the IC50 is 48 nM in data set [1], 112 nM in data set [2], 480 nM in data set [3] and 299 nM in [5]. For the same compound, the EC50 in data set [4] was determined as 210 nM.
As for `COC1O[C@@H]2[C@@H](N)[C@H](C)OC(C[C@@H]3C=C4CCC5C(CC[C@]6(C)[C@@H](c7ccc(=O)oc7)CC[C@]56O)[C@@]4(C)CC3)[C@@H]2O1` (some centres unmarked), the half-inhibitory concentration (IC50) in data set [1] turned out to be 3 nM; in data set [2], 12 nM; in data set [6], 11 nM; in data set [3], 206 nM.
On to `C[C@@H]1CC(O[C@@H]2C=C3CCC4C(CC[C@]5(C)[C@@H](c6ccc(=O)oc6)CC[C@]45O)[C@@]3(C)CC2)[C@H](O)[C@H](O)[C@@H]1O` (some centres unmarked), for which the IC50 was 9 nM in data set [1], 24 nM in data set [2] and 129 nM in data set [3].
With `C[C@@H]1OC(O[C@@H]2C=C3CCC4C(CC[C@]5(C)[C@@H](c6ccc(=O)oc6)CC[C@]45O)[C@@]3(C)CC2)[C@H](O)[C@H](O)[C@H]1N` (some centres unmarked), the half-inhibitory concentration (IC50) was 7 nM in data set [1], 56 nM in data set [2], 21 nM in data set [6] and 540 nM in data set [3].
As to `CC12CCC(OC(=O)Nc3ccc(F)cc3)C=C1CCC1C2CCC2(C)C(c3ccc(=O)oc3)CCC12O` (centres unmarked), the IC50 was determined as 23 nM in data set [1], 142 nM in data set [2] and 277 nM in [3]. For the same compound, the EC50 in data set [4] was 100 nM.
On to `C[C@]12CCC(N)C=C1CCC1C2CC[C@]2(C)[C@@H](c3ccc(=O)oc3)CC[C@]12O` (some centres unmarked), for which the IC50 in [1] came to 5 nM; in data set [2], 72 nM; in data set [3] it was 93 nM.
Turning to `CCCCNC(=O)OC1C=C2CCC3C(CCC4(C)C(c5ccc(=O)oc5)CCC34O)C2(C)CC1` (centres unmarked), the figures for the IC50 in data set [1], in data set [2] and in data set [3] were 24 nM, 46 nM and 206 nM, respectively. The EC50 in data set [4] is 68 nM.
On to `CN(C)CCON=C1C=C2CCC3C(CCC4(C)C(c5ccc(=O)oc5)CCC34O)C2(C)CC1` (centres unmarked), for which the figures for the IC50 in data set [1], in data set [2] and in data set [3] were 2 nM, 24 nM and 85 nM, respectively.
`Nc1ccn([C@@H]2O[C@H](CO)[C@@H](O)C2(F)F)c(=O)n1` [Gemcitabine, reference compound]: the “hypoxic response visualized by A549 sentinel line” value in data set [7] is “further induce hypoxic response”. Also, in data set [8], the “% TGI (d24)” value worked out at 65%, the “% Wt Change (d24)” value is 2.60% and the “Av. Tumor Weight” value is recorded as 414.3 mg.
In the case of `CCCNC(=O)OC1C=C2CCC3C(CCC4(C)C(c5ccc(=O)oc5)CCC34O)C2(C)CC1` (centres unmarked), the IC50 worked out at 19 nM in [1], 67 nM in [2] and 198 nM in data set [3]. Further, in data set [4], the EC50 turned out to be 102 nM.
Take `C=CCON=C1C=C2CCC3C(CCC4(C)C(c5ccc(=O)oc5)CCC34O)C2(C)CC1` (centres unmarked): the results for the IC50 in data set [1], in [2] and in data set [3] were 9 nM, 40 nM and 116 nM, respectively.
Regarding `COC1O[C@@H]2C(=O)[C@H](C)OC(O[C@@H]3C=C4CCC5C(CC[C@]6(C)[C@@H](c7ccc(=O)oc7)CC[C@]56O)[C@@]4(C)CC3)[C@@H]2O1` (some centres unmarked), the concentration for half-maximal inhibition (IC50) in data set [2] came to 26 nM; in [3] it was 169 nM.
As to `CC(C)(C)NC(=O)OC1C=C2CCC3C(CCC4(C)C(c5ccc(=O)oc5)CCC34O)C2(C)CC1` (centres unmarked), the IC50 in [1] was determined as 45 nM; in data set [2] it was 276 nM; in data set [3] it was 207 nM. Further, the EC50 in data set [4] stood at 104 nM.
`CCNC(=O)O[C@@H]1C=C2CCC3C(CC[C@]4(C)[C@@H](c5ccc(=O)oc5)CC[C@]34O)[C@@]2(C)CC1` (some centres unmarked): the IC50 in data set [1] turned out to be 35 nM; in data set [2] it was 82 nM; in data set [3], 210 nM; in data set [5], 220 nM. The EC50 in [4] is 75 nM.
Turning to `CC(=O)N1CCC(C(=O)O[C@@H]2C=C3CCC4C(CC[C@]5(C)[C@@H](c6ccc(=O)oc6)CC[C@]45O)[C@@]3(C)CC2)CC1` (some centres unmarked), the concentration for half-maximal inhibition (IC50) amounted to 15 nM in data set [1], 342 nM in data set [2], 396 nM in data set [3] and 270 nM in data set [5]. Besides, the EC50 in data set [4] is 133 nM.
For the compound `CC12CCC(OC(=O)c3ccc(C#N)cc3)C=C1CCC1C2CCC2(C)C(c3ccc(=O)oc3)CCC12O` (centres unmarked), the IC50 is 55 nM in [1], 84 nM in data set [2] and 453 nM in data set [3]. Also, the EC50 in data set [4] came to 130 nM.
Take `CN(C)CCN=C1CC[C@@]2(C)C(CCC3C2CC[C@]2(C)[C@@H](c4ccc(=O)oc4)CC[C@]32O)C1` (some centres unmarked): the values for the IC50 in data set [1], in data set [2] and in [3] were 25 nM, 109 nM and 171 nM, respectively.
On the same counts, the results for `CCON=C1C=C2CCC3C(CCC4(C)C(c5ccc(=O)oc5)CCC34O)C2(C)CC1` (centres unmarked) are 14 nM, 19 nM and 93 nM.
For the compound `C[C@@H]1O[C@@H](O[C@H]2C[C@@H](O)[C@]3(CO)[C@H]4[C@H](O)C[C@]5(C)[C@@H](C6=CC(=O)OC6)CC[C@]5(O)[C@@H]4CC[C@]3(O)C2)[C@H](O)[C@H](O)[C@H]1O` [BNC1, ouabain], in data set [9], the max. plasma concentration entry was “about 0.03 μg/mL”.
For `CC12CCC(OC(=O)C3CCNCC3)C=C1CCC1C2CCC2(C)C(c3ccc(=O)oc3)CCC12O` (centres unmarked), the half-inhibitory concentration (IC50) in data set [1] came out at 20 nM; in data set [2], 120 nM; in data set [3], 136 nM. Also, the EC50 in [4] was 101 nM.
For the compound `CC12CCC(=NOCCN3CCCCC3)C=C1CCC1C2CCC2(C)C(c3ccc(=O)oc3)CCC12O` (centres unmarked), the IC50 in [1] was determined as 7 nM; in data set [2], 27 nM; in data set [6], 16 nM; in data set [3], 164 nM.
